According to US9023857B2, “Substituted 6-(2-aminobenzylamino)purine derivatives, their use as medicaments and preparations containing these compounds” (Univerzita Palackeho V Olomouci, priority 2009, dated 2015):

Tests used:
[1] = tested on: CMV promoter (plasmid pCMV-lacZ); assay: β-galactosidase expression from transiently transfected pCMV-lacZ in MCF-7 and T47D; conditions: transiently transfected MCF-7 and T47D (FIG. 9)
[2] = tested on: HIV promoter (pHIV-lacZ, extrachromosomal) in H1299-TAT cells; assay: β-galactosidase expression from pHIV-lacZ transiently transfected to H1299-TAT; conditions: H1299-TAT cells (FIG. 11)
[3] = tested on: cervical carcinoma cells HELA; assay: In vitro cytotoxic activity (Calcein AM, 72 hours), HELA; conditions: Homo sapiens, read-out: Cytotoxicity IC50 HeLa
[4] = tested on: human osteogenic sarcoma HOS; assay: In vitro cytotoxic activity (Calcein AM, 72 hours), HOS; conditions: read-out: Cytotoxicity IC50 HOS
[5] = tested on: C-terminal domain (CTD) of RNA polymerase II, serine 2 and serine 5; assay: Immunoblotting: phosphorylation of the C-terminal domain of RNA polymerase II; type: cell-based
Method: Cell were detached with rubber policeman and washed three times with ice-cold PBS and lysed in buffer (50 mM Tris, pH 7.4, 250 mM NaCl, 5 mM EDTA, 50 mM NaF, 1 mM Na3VO4, 1% Nonidet P40) containing mixture of protease and phosphatase inhibitors (Sigma-Aldrich St Louis, Mo., USA). 20 μg of total proteins were separated by SDS-polyacrylamide gel electrophoresis (SDS-PAGE) on 8% or 10% gels and transferred onto nitrocellulose membranes. Membranes were blocked in 5% milk and 0.1% Tween 20 in PBS and probed overnight with specific monoclonal antibodies or rabbit polyclonal sera. Primary antibodies specific for RNA polymerase II (all from Santa Cruz Biotechnology, California, USA) included: (i) N-20 used at 1 μg/ml, (ii) H14, specific for form phosphorylated at phosphoserine 5, used at 6 μg/ml and (iii) H5, specific for form phosphorylated at phosphoserine 2 used at 4 μg/ml. Additional primary mAb used in immunblots included (iv) anti-p53 (DO-1, in house) used at 1 μg/ml, (v) anti-p21^WAF1 (118, in house), used at 1 μg/ml), (vi) anti-actin (A-2066, Sigma-Aldrich St Louis, Mo., USA) used at 1 μg/ml, (vii) anti-T-antigen (419, in house), used at 1 μg/ml. All primary antibodies were diluted in PBS containing 5% powdered milk; 0.1% Tween 20. Peroxidase conjugated rabbit anti-mouse immunoglobulin or porcine anti-rabbit immunoglobulin antisera (DAKO, Glostrup, Denmark) were used as the secondary antibodies and visualised with ECL reagents (Amersham-Pharmacia, Little Chalfont, UK).
Modulation of expression from the HIV promoter by CDKI treatment may be mediated by transcriptional regulation. At the C-terminus of the largest subunit of RNA Pol II is an important regulatory domain referred to as CTD (C-terminal domain). We therefore investigated the effect of CDKIs on CTD serine 2 and serine 5 phosphorylation. […] Although the functions of CDKs and RNA polymerase II were suppressed, the expression from incorporated viral promoters was enhanced.
Cell were detached with rubber policeman and washed three times with ice-cold PBS and lysed in buffer (50 mM Tris, pH 7.4, 250 mM NaCl, 5 mM EDTA, 50 mM NaF, 1 mM Na3VO4, 1% Nonidet P40) containing mixture of protease and phosphatase inhibitors (Sigma-Aldrich St Louis, Mo., USA). 20 μg of total proteins were separated by SDS-polyacrylamide gel electrophoresis (SDS-PAGE) on 8% or 10% gels and transferred onto nitrocellulose membranes. Membranes were blocked in 5% milk and 0.1% Tween 20 in PBS and probed overnight with specific monoclonal antibodies or rabbit polyclonal sera. […]

breast carcinoma MCF7 = assay: In vitro cytotoxic activity (Calcein AM, 72 hours), MCF7; conditions: Homo sapiens, MCF7, 72 h, read-out: Cytotoxicity IC50 MCF7
VV = type: cell-based, Vaccinia virus strain WR; conditions: Vaccinia virus on HFFF
[6] = tested on: p53-responsive reporter pRGCΔfoslacZ in human melanoma cell line Arn8; assay: p53-dependent transcriptional activity, β-galactosidase reporter in Arn8 cells
HCMV = assay: Plaque number reduction assay, HCMV on HFFF; type: cell-based, Human cytomegalovirus strain Toledo

CCC(CO)Nc1nc(NCc2ccccc2N)c2ncn(C(C)C)c2n1 (stereo not shown) [Compound 105, 2-({6-[(2-aminobenzyl)amino]-9-isopropyl-9H-purin-2-yl}amino)butan-1-ol]
expression from CMV promoter (β-galactosidase activity) [1]: inhibited expression
expression from pHIV-lacZ (extrachromosomal location), β-galactosidase readout [2]: inhibited
IC50 [3]: 2500 nM
IC50 [4]: 11 µM
phosphorylation of both serine 2 and serine 5 of RNA polymerase II CTD ([5]; 12 hours treatment, cell lines with incorporated SV40, all tested cell lines (FIG. 12A)): inhibited
levels of serine 2 and serine 5 phosphorylation of RNA polymerase II CTD ([5]; COS-1, CV-1 and MCF-7 cells): substantially reduced
phosphorylation of CTD of RNA polymerase II ([5]; MCF7 cells treated for 24 h, immunoblot (FIG. 2)): reduced phosphorylation
IC50 (breast carcinoma MCF7): 3.4 µM
inhibition of virus replication (in words) (VV): inhibited equally well
blue-coloured cells (β-galactosidase activity, X-gal substrate) ([6]; Arn8 cells, 5 μM): about 25%
total β-galactosidase activity, colorimetric assay ([6]; Arn8 cells, 12 and 24 hours after treatment): strong activity
Max. β-Gal. Activtity Conc. ([6]; concentration inducing maximum of β-galactosidase activity (p53-responsive reporter)): 16 µM
inhibition of virus replication (in words) (HCMV): equally sensitive
